Source: patent US20260373248A1, “DEGRADABLE PEPTOIDS” (Medici Therapeutics, Inc., priority 2023, published 2026)
Non-standard residues stand in square brackets, D forms with d. Residues, ends and D or L forms follow the SMILES beside them. Gly(N-(3-decanoyloxypropyl)) = CCCCCCCCCC(=O)OCCCNCC(=O)O; N(3-lauroyloxypropyl)Gly = CCCCCCCCCCCC(=O)OCCCNCC(=O)O; N(2-decanoyloxyethyl)Gly = CCCCCCCCCC(=O)OCCNCC(=O)O; Gly(N-(CH2)3O-octanoyl) = CCCCCCCC(=O)OCCCNCC(=O)O; N(2-ethylhexyl)Gly = CCCCC(CC)CNCC(=O)O; N(CH(CH2OH)2)Gly = O=C(O)CNC(CO)CO; N(octyl)Gly = CCCCCCCCNCC(=O)O

Assays:
mRNA = mRNA encapsulation (modified Quant-iT RiboGreen assay); type: physicochemical; details: for mean percent encapsulation of RNA: RiboGreen, without vs with Triton X-100; for % Encapsulation: mRNA
In short: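 Peptoid nanoparticles were incubated with Triton X-100 for 10 min to release entrapped mRNA, then mixed with RiboGreen reagent and read by fluorescence (ex 485 nm/em 530 nm). Percent encapsulation was derived from the ratio of fluorescence without versus with Triton X-100.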

hEPO = experiment: Quantification of hEPO in serum after IV injection of mRNA (Human EPO ELISA); type: in vivo; details: Balb/c mice, 2.5 μg mRNA IV, serum after 6 hours
Procedure: Balb/c mice were treated with 2.5 μg of mRNA coding for human erythropoiten via IV injection according to a similar method as in Example 4. hEPO protein in the serum was quantified after 6 hours using the Human EPO ELISA Kit from Invitrogen (catalog #BMS2035-2). Wash buffer (PBS with 1% tween 20) and assay buffer (PBS with 1% tween 20, 10% BSA) were prepared from a 20× concentrate with milli-Q water. Serum samples were diluted with PBS according to expected EPO concentration, with a 50× dilution for low expression samples and up to a 30,000× dilution for samples expected to have high expression. Microwell strips were washed in a plate washer with wash buffer and tapped on an absorbent pad to remove excess buffer. 100 μL of sample diluent were added to each well that will be used for the standard curve. 50 μL of sample diluent was added to each sample well.
The standard curve was prepared by reconstituting the human erythropoietin standard by adding the volume of water listed on the vial label. Standard was swirled gently and allowed to reconstitute for 10 minutes prior to use, then 100 μL is added to standard wells and mixed well. 100 μL from standard wells were then transferred to sample wells and mixed well. This was repeated 5 times to produce 2 columns of standard dilutions from 100 to 1.6 mIU/mL. 100 μL was discarded from the last microwells. The final 2 wells contained 100 μL of sample diluent and served as a blank. An external standard was also included to facilitate a mIU/mL conversion to ng/mL. The same serial dilution method was repeated starting with the external standard at 6.25 ng/mL. Once the standards were added, 50 μL of each sample was added in duplicate to the sample wells. Next, the biotin-conjugate was prepared by diluting 1:100 in assay buffer. 50 μL of biotin-conjugate was added to all wells and the plate was covered with a plate seal and shaken at room temperature for 1 hour. During the last few minutes of shaking, streptavidin-HRP was prepared by diluting 1:100 in assay buffer. The plate was washed on a plate washer and tapped on an absorbent pad to remove remaining wash buffer.
100 μL of the diluted streptavidin-HRP was added to each well and the plate was sealed and shaken for 15 minutes at room temperature. After 15 minutes, the plate seal was removed and the plate was washed on a plate washer and remaining wash buffer tapped out on an absorbent pad. 100 μL of TMB substrate was added to all wells and the plate was incubated for 10 minutes at room temperature out of direct light. Color development was checked every few minutes and the assay was stopped when the highest standard was dark blue. The reaction was stopped by pipetting 100 μL of stop solution into each well. Immediately after stop solution was added, the plate was gently tapped to ensure the solution was mixed. Absorbance was then read at 450 nm for each well. A standard curve was plotted for both the kit-provided standards (mIU/mL) and the external standard (ng/mL) and fit using Prism. Sample absorbances that fell within the standard curve were interpolated and adjusted for dilution (including a 2× assay dilution). Samples that were not within the standard curve were repeated at an adjusted dilution.

firefly luciferase = experiment: In vivo firefly luciferase expression after intravenous injection of fLuc mRNA delivery vehicles (IVIS imaging); design: species or system female Balb/c mice; details: for Total Flux: mice, 2.5 ug fLuc mRNA intravenously, 6 hours post-injection; for Total Flux (luciferase expression): fLuc mRNA, intravenous, Balb/c mice
In short: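 Female Balb/c mice (6-8 weeks) given 2.5 ug fLuc mRNA in Nutshells IV. At 6 hours, IP D-luciferin (30 mg/mL, 10 μL/g) under isoflurane; IVIS imaging 10 minutes later, then harvested organs imaged ex vivo. Read-out: total photon flux in regions of interest.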

[1] = Peptoid quantity remaining in liver by HPLC-TOF mass spectrometry; type: in vivo; details: liver homogenate
Procedure: Peptoid quantity in liver was determined via high-performance liquid chromatography coupled with time-of-flight mass spectrometer (HPLC-TOF). The entire liver was weighed, and then two sections were isolated using a provided biopsy punch for liver homogenization. Liver homogenate sample was prepared by resuspending 20 mg liver tissue in 400 μL extraction solvent (IPA/MeOH=8/2) containing an internal standard (400 pg/μL) followed by bead homogenization (45 sec per cycle for 3-4 cycles). Homogenized samples were centrifuged at 12,000 rpm for 8 min at 6 °C. The resulting supernatant was collected and stored at −20 °C for further LC analysis. 5 μL of the resulting supernatant sample from solid or liquid tissue was injected into a BEH C8 column on an Agilent 1290 Infinity II liquid chromatograph coupled with an Agilent 6230 LC-TOF system. Concentrations of peptoids were determined by a linear calibration curve (linear range:0.2-50 μg/g for solid tissue). Standard calibration curve solutions were prepared by spiking untreated liver followed by homogenization and centrifugation.

[2] = Delivery vehicle size and polydispersity by dynamic light scattering; type: physicochemical
In short: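 LNPs made by microfluidic mixing of ethanolic peptoid/DSPC/cholesterol/DMG-PEG2000 (20:1.79:7.16:1.84 by weight) with mRNA in 10 mM citrate pH 5.0 at 1:3 by volume, then dialyzed overnight at 4 °C against tris-sucrose pH 7.4. Size and PDI read by dynamic light scattering in PBS.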

luciferase = experiment: Luciferase expression after local (intramuscular or subcutaneous) administration of mRNA; type: in vivo; details: mRNA 0.01 mpk, 6 hours; for IM Flux: intramuscular; for SC Flux: subcutaneous
In short: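 Female Balb/c mice (6-8 weeks) received fLuc mRNA in aminolipidated peptoid Nutshells at 0.01 mpk subcutaneously or intramuscularly, or 0.1 mpk intratumorally. At 6 hours, anesthetized mice were given D-luciferin IP and imaged 10 minutes later; harvested organs were also imaged and total photon flux quantified in regions of interest.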

[3] = DLS in PBS, peptoid:DSPC:Cholesterol:DMG-PEG2000 weight ratio 20:1.79:7.16:1.84, mRNA

SMILES	mean percent encapsulation of RNA (mRNA) [%]	% of injected dose remaining in liver [1] [%]	PDI [2, 3]	Particle Size [2, 3] [nm]	% Encapsulation (mRNA; formulation recipe D22) [%]	Particle Size ([2]; formulation recipe D22) [nm]	% Encapsulation (mRNA; formulation recipe R5) [%]	% Encapsulation (mRNA; formulation recipe R7) [%]	% Encapsulation (mRNA; formulation recipe R9) [%]	Particle Size ([2]; formulation recipe R5) [nm]	Particle Size ([2]; formulation recipe R7) [nm]	Particle Size ([2]; formulation recipe R9) [nm]	hEPO (hEPO) [ng/mL]	Total Flux (firefly luciferase) [p/s]	IM Flux (luciferase) [p/s]	SC Flux (luciferase) [p/s]	Total Flux (luciferase expression) (firefly luciferase; formulation recipe D22) [p/s]	Total Flux (luciferase expression) (firefly luciferase; formulation recipe R5) [p/s]	Total Flux (luciferase expression) (firefly luciferase; formulation recipe R7) [p/s]	Total Flux (luciferase expression) (firefly luciferase; formulation recipe R9) [p/s]	other results
CCCCCCCC(=O)OCCCN(CC(=O)N(CC(=O)N(CC(=O)N(CCCOC(=O)CCCCCCC)CC(=O)N(CC(N)=O)CC(CC)CCCC)CC(CC)CCCC)CC(CC)CCCC)C(=O)CN(CC(CC)CCCC)C(=O)CNC(CO)CO (stereo not shown) [Compound 4] (H-[N(CH(CH2OH)2)Gly][N(2-ethylhexyl)Gly][Gly(N-(CH2)3O-octanoyl)][N(2-ethylhexyl)Gly][N(2-ethylhexyl)Gly][Gly(N-(CH2)3O-octanoyl)][N(2-ethylhexyl)Gly]-NH2)	94.6	5.98	0.113	74.4	–	–	–	–	–	–	–	–	291	4.33E+09	5.26E+08	5.11E+08	–	–	–	–	–
CCCCCCCCCC(=O)OCCCN(CC(=O)N(CC(=O)N(CC(=O)N(CCCOC(=O)CCCCCCCCC)CC(=O)N(CC(N)=O)CC(CC)CCCC)CC(CC)CCCC)CC(CC)CCCC)C(=O)CN(CC(CC)CCCC)C(=O)CNC(CO)CO (stereo not shown) [Compound 5] (H-[N(CH(CH2OH)2)Gly][N(2-ethylhexyl)Gly][Gly(N-(3-decanoyloxypropyl))][N(2-ethylhexyl)Gly][N(2-ethylhexyl)Gly][Gly(N-(3-decanoyloxypropyl))][N(2-ethylhexyl)Gly]-NH2)	84.8	14.71	0.076	86.2	84.8	86.2	–	–	–	–	–	–	278	1.77E+09	1.62E+08	1.71E+08	1.77E+09	–	–	–	% Encapsulation (mRNA; formulation recipe O3): 82.2%; % Encapsulation (mRNA; formulation recipe O7): 93.5%; Total Flux (luciferase expression) (firefly luciferase; formulation recipe O3): 3.25E+09 p/s; Total Flux (luciferase expression) (firefly luciferase; formulation recipe O7): 1.93E+09 p/s; Particle Size ([2]; formulation recipe O3): 81.6 nm; Particle Size ([2]; formulation recipe O7): 51.7 nm
CCCCCCCCCCCC(=O)OCCCN(CC(=O)N(CC(=O)N(CC(=O)N(CCCOC(=O)CCCCCCCCCCC)CC(=O)N(CC(N)=O)CC(CC)CCCC)CC(CC)CCCC)CC(CC)CCCC)C(=O)CN(CC(CC)CCCC)C(=O)CNC(CO)CO (stereo not shown) [Compound 6] (H-[N(CH(CH2OH)2)Gly][N(2-ethylhexyl)Gly][N(3-lauroyloxypropyl)Gly][N(2-ethylhexyl)Gly][N(2-ethylhexyl)Gly][N(3-lauroyloxypropyl)Gly][N(2-ethylhexyl)Gly]-NH2)	77.1	13.73	0.125	83.9	–	–	–	–	–	–	–	–	245	1.67E+09	1.22E+08	1.14E+08	–	–	–	–	–

Now from value to compound, other results behind:

mean percent encapsulation of RNA (mRNA) [%]	% of injected dose remaining in liver [1] [%]	PDI [2, 3]	Particle Size [2, 3] [nm]	% Encapsulation (mRNA; formulation recipe D22) [%]	Particle Size ([2]; formulation recipe D22) [nm]	% Encapsulation (mRNA; formulation recipe R5) [%]	% Encapsulation (mRNA; formulation recipe R7) [%]	% Encapsulation (mRNA; formulation recipe R9) [%]	Particle Size ([2]; formulation recipe R5) [nm]	Particle Size ([2]; formulation recipe R7) [nm]	Particle Size ([2]; formulation recipe R9) [nm]	SMILES	hEPO (hEPO) [ng/mL]	Total Flux (firefly luciferase) [p/s]	IM Flux (luciferase) [p/s]	SC Flux (luciferase) [p/s]	Total Flux (luciferase expression) (firefly luciferase; formulation recipe D22) [p/s]	Total Flux (luciferase expression) (firefly luciferase; formulation recipe R5) [p/s]	Total Flux (luciferase expression) (firefly luciferase; formulation recipe R7) [p/s]	Total Flux (luciferase expression) (firefly luciferase; formulation recipe R9) [p/s]	other results
55.7	6.65	0.135	90.0	–	–	92.2	87.8	93.3	57.2	69.1	59.0	CCCCCCCCCC(=O)OCCN(CC(=O)N(CCOC(=O)CCCCCCCCC)CC(=O)N(CC(=O)N(CCOC(=O)CCCCCCCCC)CC(=O)N(CCOC(=O)CCCCCCCCC)CC(=O)N(CC(N)=O)CC(CC)CCCC)CC(CC)CCCC)C(=O)CNC(CO)CO (stereo not shown) [Compound 16] (H-[N(CH(CH2OH)2)Gly][N(2-decanoyloxyethyl)Gly][N(2-decanoyloxyethyl)Gly][N(2-ethylhexyl)Gly][N(2-decanoyloxyethyl)Gly][N(2-decanoyloxyethyl)Gly][N(2-ethylhexyl)Gly]-NH2)	422	9.70E+09	3.09E+08	5.62E+08	–	6.72E+08	1.81E+09	1.14E+09	% Encapsulation (mRNA; formulation recipe F2): 90.8%; % Encapsulation (mRNA; formulation recipe R1): 89.4%; Total Flux (luciferase expression) (firefly luciferase; formulation recipe F2): 2.35E+09 p/s; Total Flux (luciferase expression) (firefly luciferase; formulation recipe R1): 5.73E+08 p/s; Particle Size ([2]; formulation recipe F2): 71.0 nm; Particle Size ([2]; formulation recipe R1): 59.8 nm
59.3	8.18	0.156	89.3	59.3	89.3	86.0	79.1	92.7	65.5	65.1	64.9	CCCCCCCCCC(=O)OCCCN(CC(=O)N(CC(N)=O)CC(CC)CCCC)C(=O)CN(CCCCCCCC)C(=O)CN(CC(CC)CCCC)C(=O)CN(CCCOC(=O)CCCCCCCCC)C(=O)CN(CCCCCCCC)C(=O)CNC(CO)CO (stereo not shown) [Compound 32] (H-[N(CH(CH2OH)2)Gly][N(octyl)Gly][Gly(N-(3-decanoyloxypropyl))][N(2-ethylhexyl)Gly][N(octyl)Gly][Gly(N-(3-decanoyloxypropyl))][N(2-ethylhexyl)Gly]-NH2)	642	7.45E+09	1.45E+08	9.18E+08	7.45E+09	5.34E+08	1.41E+09	8.16E+08	% Encapsulation (mRNA; formulation recipe R2): 88.2%; % Encapsulation (mRNA; formulation recipe R6): 93.7%; Total Flux (luciferase expression) (firefly luciferase; formulation recipe R2): 7.39E+08 p/s; Total Flux (luciferase expression) (firefly luciferase; formulation recipe R6): 9.19E+08 p/s; Particle Size ([2]; formulation recipe R2): 71.0 nm; Particle Size ([2]; formulation recipe R6): 68.4 nm
